# Measured values taken from BindingDB's records for doi:10.7270/Q2GM89G6 (n/a, 1995).
# Molecular target: Protein kinase C gamma type (Rattus norvegicus, UniProt P63319)
# Experiment: Inhibition of [3H]phorbol-12,13-dibutyrate (PDBu) binding to rat brain protein kinase C gamma regulatory domain
row,SMILES,IC50 [µM]
1,CC(C)[C@H]1C(=O)N[C@H](CO)Cc2c[nH]c3cccc(c23)N1C,2.75
2,Cc1ccc2[nH]cc3c2c1N(C)[C@@H](C(C)C)C(=O)N[C@H](CO)C3,> 100
3,Cc1cc2ccc3[nH]cc4c3c2n1[C@@H](C(C)C)C(=O)N[C@H](CO)C4,10

# Continued, values first:
row,IC50 [µM],SMILES
1,1.26,CC(C)[C@H]1C(=O)N[C@H](CO)Cc2c[nH]c3ccc4c(c23)N1[C@H](C)C4
2,24,CC(C)[C@H]1C(=O)N[C@H](CO)Cc2c[nH]c3ccc4c(c23)N1[C@@H](C)C4
